Columns and labels:
MYLK = biological target: T1, MYLK (Homo sapiens, UniProt Q15746); test: scanMAX Kinase panel (DiscoverX), % control; type: binding; conditions: <35% = active
T1 construct: purchased DiscoverX
Summary of the method: (§1)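 Single-point scanMAX profiling, 1 uM compound (DMSO). % control scaled between DMSO = 100% and positive control = 0%. Cut-off for activity: <35%.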

GAK = biological target: T2, GAK (Homo sapiens, UniProt O14976); test: scanMAX Kinase panel (DiscoverX), % control; type: binding; conditions: <35% = active
T2 construct: purchased DiscoverX
T2 sequence (O14976 1-1311): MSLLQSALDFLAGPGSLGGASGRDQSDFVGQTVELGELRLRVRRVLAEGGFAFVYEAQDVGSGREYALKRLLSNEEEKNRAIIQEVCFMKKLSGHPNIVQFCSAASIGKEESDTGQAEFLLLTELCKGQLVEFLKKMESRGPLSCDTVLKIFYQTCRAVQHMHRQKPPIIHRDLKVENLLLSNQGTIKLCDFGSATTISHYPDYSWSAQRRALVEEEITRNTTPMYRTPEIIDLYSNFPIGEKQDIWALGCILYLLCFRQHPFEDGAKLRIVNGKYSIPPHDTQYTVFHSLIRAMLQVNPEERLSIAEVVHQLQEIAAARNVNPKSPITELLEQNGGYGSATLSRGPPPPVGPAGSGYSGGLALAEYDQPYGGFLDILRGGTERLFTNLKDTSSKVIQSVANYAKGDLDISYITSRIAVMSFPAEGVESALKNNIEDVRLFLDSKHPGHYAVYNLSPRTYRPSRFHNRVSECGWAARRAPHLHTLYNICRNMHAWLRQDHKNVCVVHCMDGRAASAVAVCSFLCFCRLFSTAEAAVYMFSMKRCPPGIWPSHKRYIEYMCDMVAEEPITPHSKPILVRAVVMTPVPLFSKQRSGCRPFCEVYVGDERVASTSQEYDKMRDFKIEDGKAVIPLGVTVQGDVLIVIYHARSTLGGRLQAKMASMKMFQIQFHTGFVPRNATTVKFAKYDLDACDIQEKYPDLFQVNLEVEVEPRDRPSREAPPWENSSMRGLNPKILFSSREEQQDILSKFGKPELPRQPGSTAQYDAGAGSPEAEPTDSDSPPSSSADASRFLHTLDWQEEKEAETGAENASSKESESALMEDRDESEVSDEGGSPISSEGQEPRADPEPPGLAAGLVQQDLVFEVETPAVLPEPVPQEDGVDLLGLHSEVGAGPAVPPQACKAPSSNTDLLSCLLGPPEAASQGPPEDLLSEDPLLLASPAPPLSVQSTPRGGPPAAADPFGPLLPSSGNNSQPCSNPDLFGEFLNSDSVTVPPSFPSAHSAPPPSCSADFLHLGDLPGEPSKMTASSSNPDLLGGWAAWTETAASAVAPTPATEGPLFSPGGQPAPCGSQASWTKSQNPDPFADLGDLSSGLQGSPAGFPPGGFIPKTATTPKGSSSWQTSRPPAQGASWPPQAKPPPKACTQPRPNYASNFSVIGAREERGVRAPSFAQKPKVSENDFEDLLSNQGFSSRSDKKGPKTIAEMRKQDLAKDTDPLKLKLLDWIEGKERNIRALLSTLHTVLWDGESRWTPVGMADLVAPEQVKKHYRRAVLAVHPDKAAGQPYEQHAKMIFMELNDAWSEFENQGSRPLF
Summary of the method: as §1

DYRK1A = biological target: T3, DYRK1A (Homo sapiens, UniProt Q13627); test: scanMAX Kinase panel (DiscoverX), % control; type: binding; conditions: <35% = active
T3 construct: purchased DiscoverX
Summary of the method: as §1

CLK4 = biological target: T4, CLK4 (Homo sapiens, UniProt Q9HAZ1); test: scanMAX Kinase panel (DiscoverX), % control; type: binding; conditions: <35% = active
T4 construct: purchased DiscoverX
Summary of the method: as §1

ALK (L1196M) = biological target: T5, ALK (L1196M) (Homo sapiens, UniProt Q9UM73, L1196M); test: scanMAX Kinase panel (DiscoverX), % control; type: binding; conditions: <35% = active
T5 construct: purchased DiscoverX
Summary of the method: as §1

LRRK2 = LRRK2 (Homo sapiens, UniProt Q5S007); test: scanMAX Kinase panel (DiscoverX), % control; type: binding; parameters: purchased DiscoverX; conditions: <35% = active
Protocol: Specifically, for Examples 162, 160, 105, 217, 205, 96, 207, 184, 206, 221, 238, and 237 selected among the example compounds of the present invention, it was decided to measure enzyme (kinase) selectivity by DiscoverX, and the experiment was conducted using a panel for scanMAX™ Kinase analysis. At this time, the concentration of the drug treated with the enzyme was 1 uM in DMSO, the control percentage (% control) was determined in the same way as in Equation 1 below, and the results were shown in Table 6 below. [formula] Here, the positive control refers to a compound showing a control percentage of 0%, and the negative control is DMSO, indicating a control percentage of 100%. Also, in the enzyme selectivity of the present invention, if the control percentage for each enzyme was <35% (i.e., less than 35%), it was determined to have activity against the relevant enzyme.

[1] = biological target: T6, LRRK2, LRRK2 (G2019S), DYRK1, CLK1 and TTK kinases (Homo sapiens, UniProt Q13627); test: Enzyme IC50 by Kinase HotSpot service (Reaction Biology Corporation), values marked with *; type: biochemical; conditions: DYRK1, ATP 10 uM
T6 construct: other: DYRK1; Kinase HotSpot service (Reaction Biology), ATP 10 uM
Summary of the method: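 Radiometric-service kinase assays (Reaction Biology HotSpot protocol) run at 10 uM ATP under uniform conditions. Compounds tested as 3-fold dilution series from a top concentration of […] to give IC50.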

T4 sequence (Q9HAZ1 whole entry): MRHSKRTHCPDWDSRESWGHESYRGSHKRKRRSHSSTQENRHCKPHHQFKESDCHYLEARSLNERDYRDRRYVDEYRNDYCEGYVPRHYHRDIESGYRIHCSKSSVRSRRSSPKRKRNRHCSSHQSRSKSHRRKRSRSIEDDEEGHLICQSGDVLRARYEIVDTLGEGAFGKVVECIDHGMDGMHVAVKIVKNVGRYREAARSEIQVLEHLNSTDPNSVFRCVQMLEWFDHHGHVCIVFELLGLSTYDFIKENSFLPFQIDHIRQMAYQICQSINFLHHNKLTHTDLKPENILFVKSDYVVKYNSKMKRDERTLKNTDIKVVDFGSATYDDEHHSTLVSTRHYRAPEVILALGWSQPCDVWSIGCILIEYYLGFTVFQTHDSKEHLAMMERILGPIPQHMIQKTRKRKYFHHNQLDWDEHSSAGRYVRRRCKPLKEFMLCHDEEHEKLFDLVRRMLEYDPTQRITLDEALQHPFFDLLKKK
T1 sequence (Q15746 whole entry): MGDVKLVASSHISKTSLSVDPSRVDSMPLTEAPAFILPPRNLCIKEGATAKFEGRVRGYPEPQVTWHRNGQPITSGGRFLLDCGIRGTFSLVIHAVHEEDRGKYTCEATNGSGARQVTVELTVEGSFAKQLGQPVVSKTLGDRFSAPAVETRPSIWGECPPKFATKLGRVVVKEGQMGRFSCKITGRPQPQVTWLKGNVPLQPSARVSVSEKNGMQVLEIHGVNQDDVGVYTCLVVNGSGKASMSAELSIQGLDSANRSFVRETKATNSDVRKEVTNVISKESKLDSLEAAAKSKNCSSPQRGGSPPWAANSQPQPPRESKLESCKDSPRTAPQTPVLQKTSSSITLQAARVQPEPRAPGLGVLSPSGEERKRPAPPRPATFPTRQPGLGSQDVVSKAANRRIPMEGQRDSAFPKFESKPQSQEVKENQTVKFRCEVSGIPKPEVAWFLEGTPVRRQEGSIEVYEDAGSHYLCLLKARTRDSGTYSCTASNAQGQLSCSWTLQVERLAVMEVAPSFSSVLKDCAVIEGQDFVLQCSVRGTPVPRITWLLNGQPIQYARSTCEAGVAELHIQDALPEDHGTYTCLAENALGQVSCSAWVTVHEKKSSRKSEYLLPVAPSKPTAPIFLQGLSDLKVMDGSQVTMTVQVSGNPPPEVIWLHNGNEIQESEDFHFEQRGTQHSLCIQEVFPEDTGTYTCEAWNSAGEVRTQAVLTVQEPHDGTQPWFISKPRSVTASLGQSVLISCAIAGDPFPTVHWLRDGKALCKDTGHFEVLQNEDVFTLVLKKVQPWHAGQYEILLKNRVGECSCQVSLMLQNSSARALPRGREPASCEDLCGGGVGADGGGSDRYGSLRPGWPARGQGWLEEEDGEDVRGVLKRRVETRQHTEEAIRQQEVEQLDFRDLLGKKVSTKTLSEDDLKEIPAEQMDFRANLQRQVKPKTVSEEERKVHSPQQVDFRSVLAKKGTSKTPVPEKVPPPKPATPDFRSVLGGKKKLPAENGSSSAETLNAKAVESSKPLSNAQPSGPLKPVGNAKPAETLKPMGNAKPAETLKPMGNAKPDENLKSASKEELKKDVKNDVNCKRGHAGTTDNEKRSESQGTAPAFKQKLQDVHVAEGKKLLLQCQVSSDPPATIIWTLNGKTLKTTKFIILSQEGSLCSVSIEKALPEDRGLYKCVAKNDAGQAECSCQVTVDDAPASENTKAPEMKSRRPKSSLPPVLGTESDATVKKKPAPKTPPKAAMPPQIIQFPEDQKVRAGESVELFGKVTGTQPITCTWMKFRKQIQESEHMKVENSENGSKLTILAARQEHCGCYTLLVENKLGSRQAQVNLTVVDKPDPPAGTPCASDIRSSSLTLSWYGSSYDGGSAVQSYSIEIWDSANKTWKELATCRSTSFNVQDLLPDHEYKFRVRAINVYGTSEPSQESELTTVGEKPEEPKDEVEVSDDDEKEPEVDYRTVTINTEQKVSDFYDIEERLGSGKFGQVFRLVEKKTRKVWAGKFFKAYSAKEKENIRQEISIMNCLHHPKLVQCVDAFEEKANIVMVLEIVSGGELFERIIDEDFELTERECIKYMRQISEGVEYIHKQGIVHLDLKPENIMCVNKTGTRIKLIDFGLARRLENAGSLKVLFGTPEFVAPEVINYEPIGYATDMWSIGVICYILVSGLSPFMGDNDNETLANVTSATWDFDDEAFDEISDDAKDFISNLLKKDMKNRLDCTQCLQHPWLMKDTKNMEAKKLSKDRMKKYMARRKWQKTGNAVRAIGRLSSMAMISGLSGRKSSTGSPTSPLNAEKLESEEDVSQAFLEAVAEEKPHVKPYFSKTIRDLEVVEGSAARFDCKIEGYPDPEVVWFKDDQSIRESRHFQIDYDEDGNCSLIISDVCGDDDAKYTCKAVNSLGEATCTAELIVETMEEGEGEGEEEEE
T5 sequence (Q9UM73 19-1620 L1196M): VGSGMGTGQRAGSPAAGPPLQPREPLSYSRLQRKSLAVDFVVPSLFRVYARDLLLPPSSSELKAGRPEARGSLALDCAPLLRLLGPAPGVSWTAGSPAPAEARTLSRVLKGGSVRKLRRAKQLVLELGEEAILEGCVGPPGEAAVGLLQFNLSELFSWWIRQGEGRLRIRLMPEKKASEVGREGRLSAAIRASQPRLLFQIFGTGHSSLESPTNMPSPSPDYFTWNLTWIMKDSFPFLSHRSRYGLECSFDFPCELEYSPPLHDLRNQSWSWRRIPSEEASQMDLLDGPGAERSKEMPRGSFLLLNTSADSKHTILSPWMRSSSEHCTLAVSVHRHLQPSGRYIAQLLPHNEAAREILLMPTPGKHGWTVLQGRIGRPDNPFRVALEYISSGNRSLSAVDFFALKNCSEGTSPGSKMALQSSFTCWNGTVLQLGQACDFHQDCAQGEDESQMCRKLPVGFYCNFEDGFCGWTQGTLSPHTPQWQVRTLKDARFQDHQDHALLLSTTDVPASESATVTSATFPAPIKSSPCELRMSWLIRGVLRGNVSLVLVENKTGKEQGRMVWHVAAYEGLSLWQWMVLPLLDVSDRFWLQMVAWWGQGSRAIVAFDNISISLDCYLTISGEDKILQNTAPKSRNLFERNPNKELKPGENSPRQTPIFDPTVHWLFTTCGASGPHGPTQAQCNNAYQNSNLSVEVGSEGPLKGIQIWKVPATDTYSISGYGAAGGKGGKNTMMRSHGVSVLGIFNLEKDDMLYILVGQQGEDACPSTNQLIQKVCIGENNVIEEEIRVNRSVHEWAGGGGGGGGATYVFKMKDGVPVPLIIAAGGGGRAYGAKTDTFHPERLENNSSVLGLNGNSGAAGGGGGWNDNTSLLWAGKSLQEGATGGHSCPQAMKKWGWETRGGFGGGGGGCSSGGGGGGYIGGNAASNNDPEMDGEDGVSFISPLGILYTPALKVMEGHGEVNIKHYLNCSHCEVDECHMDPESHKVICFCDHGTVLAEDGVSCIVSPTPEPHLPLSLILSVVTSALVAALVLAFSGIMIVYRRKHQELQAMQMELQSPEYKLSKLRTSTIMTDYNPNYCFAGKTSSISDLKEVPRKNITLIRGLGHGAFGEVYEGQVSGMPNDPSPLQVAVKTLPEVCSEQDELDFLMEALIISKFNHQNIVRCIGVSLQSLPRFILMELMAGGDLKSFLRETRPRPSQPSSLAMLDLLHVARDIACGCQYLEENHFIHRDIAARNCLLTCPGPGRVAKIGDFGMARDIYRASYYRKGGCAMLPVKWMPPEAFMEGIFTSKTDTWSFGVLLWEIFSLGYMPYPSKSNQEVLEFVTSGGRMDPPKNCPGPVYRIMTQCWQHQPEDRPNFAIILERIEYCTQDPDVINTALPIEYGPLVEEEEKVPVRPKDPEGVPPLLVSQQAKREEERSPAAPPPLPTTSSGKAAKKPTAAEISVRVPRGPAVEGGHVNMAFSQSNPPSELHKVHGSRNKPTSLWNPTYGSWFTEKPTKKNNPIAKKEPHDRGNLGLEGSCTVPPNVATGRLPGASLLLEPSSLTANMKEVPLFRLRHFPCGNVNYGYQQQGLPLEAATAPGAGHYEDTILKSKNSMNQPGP

remaining binding at 1 µM (MYLK) [%]	remaining binding at 1 µM (GAK) [%]	remaining binding at 1 µM (DYRK1A) [%]	remaining binding at 1 µM (CLK4) [%]	remaining binding at 1 µM (ALK (L1196M)) [%]	remaining binding at 1 µM (LRRK2) [%]	IC50 [1] [nM]	Compound
15	15	2.2	0.55	15	36	< 100	O=C(c1ccc(Nc2cc(C3CC3)c3c(C(F)(F)F)c[nH]c3n2)c2c1CCO2)N1CC[C@H](N2CCOCC2)C1 [Example 237, (S)-(7-((4-cyclopropyl-3-(trifluoromethyl)-1H-pyrrolo[2,3-b]pyridin-6-yl)amino)-2,3-dihydrobenzofuran-4-yl)(3-morpholinopyrrolidin-1-yl)methanone]
33	27	1.9	0.35	58	48	< 100	O=C(c1ccc(Nc2cc(C3CC3)c3c(C(F)(F)F)c[nH]c3n2)c2c1CCO2)N1CC[C@@H](N2CCOCC2)C1 [Example 238, (R)-(7-((4-cyclopropyl-3-(trifluoromethyl)-1H-pyrrolo[2,3-b]pyridin-6-yl)amino)-2,3-dihydrobenzofuran-4-yl)(3-morpholinopyrrolidin-1-yl)methanone]
30	12	5.1	0.25	28	14	< 100	O=C(c1ccc(Nc2cc(C3CC3)c3c(C(F)(F)F)c[nH]c3n2)c2c1OCCO2)N1CCC(N2CCOCC2)CC1 [Example 221, (8-((4-cyclopropyl-3-(trifluoromethyl)-1H-pyrrolo[2,3-b]pyridin-6-yl)amino)-2,3-dihydrobenzo [b] [1,4]dioxin-5-yl)(4-morpholinopiperidin-1-yl)methanone]
8	27	0.1	0.45	23	3.8	< 100	CNc1cc(Nc2ccc(S(=O)(=O)N3CCC(N4CCOCC4)CC3)cc2OC)nc2[nH]cc(C(F)(F)F)c12 [Example 184, N^6-(2-methoxy-4-((4-morpholinopiperidin-1-yl)sulfonyl)phenyl)-N^4-methyl-3-(trifluoromethyl)-1H-pyrrolo[2,3-b]pyridine-4,6-diamine]
1.8	9.9	0	8.2	18	1		CNc1cc(Nc2ccc(C(=O)N3CC[C@H](N4CCOCC4)C3)c3c2OCC3)nc2[nH]cc(C(F)(F)F)c12 [Example 217, (S)-(7-((4-(methylamino)-3-(trifluoromethyl)-1H-pyrrolo[2,3-b]pyridin-6-yl)amino)-2,3-dihydrobenzofuran-4-yl)(3-morpholinopyrrolidin-1-yl)methanone]

Reference: US12240844B2 (Voronoi, Inc., priority 2019, dated 2025)
